Measurements: PubChem BioAssay AID1963971 (Molecular Pharmacology Branch, DTP, NCI, 2024)

Tested on: 953936-095-R-J2-PDC spheroids with HUVEC/MSC, viability
Assay: Anticancer human tumor 953936-095-R-J2-PDC patient-derived cervical squamous cell carcinoma cell line growth inhibition [PI3K]
Conditions: for IC50: curve of first compound; for viability, T/C: stronger effect = lower value; active means viability on the fitted dose curve at most 10% of control; inactive means the rest
In short: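 Spheroid viability read-out. Co-cultures contained the tumor line plus HUVEC and human MSCs. Each agent was paired with a PI3K inhibitor (inavolisib, alpelisib, duvelisib, copanlisib) across half-log dilutions starting at clinical Cmax, or at 10 microM when Cmax was unknown.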

[1] = second compound 0.00316 µM, first compound 0.0316 µM
[2] = second compound 0.00316 µM, first compound 0.1 µM
[3] = second compound 0.00316 µM, first compound 0.316 µM
[4] = second compound 0.00316 µM, first compound 1 µM
[5] = second compound 0.00316 µM, first compound 3.16 µM
[6] = second compound 0.00316 µM, first compound 10 µM
[7] = second compound 0.01 µM, first compound 0.0316 µM
[8] = second compound 0.01 µM, first compound 0.1 µM
[9] = second compound 0.01 µM, first compound 0.316 µM
[10] = second compound 0.01 µM, first compound 1 µM
[11] = second compound 0.01 µM, first compound 3.16 µM
[12] = second compound 0.01 µM, first compound 10 µM
[13] = second compound 0.0316 µM, first compound 0.0316 µM
[14] = second compound 0.0316 µM, first compound 0.1 µM
[15] = second compound 0.0316 µM, first compound 0.316 µM
[16] = second compound 0.0316 µM, first compound 1 µM
[17] = second compound 0.0316 µM, first compound 3.16 µM
[18] = second compound 0.0316 µM, first compound 10 µM
[19] = second compound 0.1 µM, first compound 0.0316 µM
[20] = second compound 0.1 µM, first compound 0.1 µM
[21] = second compound 0.1 µM, first compound 0.316 µM
[22] = second compound 0.1 µM, first compound 1 µM
[23] = second compound 0.1 µM, first compound 3.16 µM
[24] = second compound 0.1 µM, first compound 10 µM
[25] = second compound 0.316 µM, first compound 0.0316 µM
[26] = second compound 0.316 µM, first compound 0.1 µM
[27] = second compound 0.316 µM, first compound 0.316 µM
[28] = second compound 0.316 µM, first compound 1 µM
[29] = second compound 0.316 µM, first compound 3.16 µM
[30] = second compound 0.316 µM, first compound 10 µM
[31] = second compound 1 µM, first compound 0.0316 µM
[32] = second compound 1 µM, first compound 0.1 µM
[33] = second compound 1 µM, first compound 0.316 µM
[34] = second compound 1 µM, first compound 1 µM
[35] = second compound 1 µM, first compound 3.16 µM
[36] = second compound 1 µM, first compound 10 µM
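Further: spheroids exposed to compounds for seven days before read-out.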

C#Cc1c(F)ccc2cc(O)cc(-c3ncc4c(N5CC6CCC(C5)N6)nc(OCC56CCCN5CC(F)C6)nc4c3F)c12 (stereo not drawn) + CC(Nc1ccc2c(c1)OCCn1cc(N3C(=O)OCC3C(F)F)nc1-2)C(N)=O
> 10000 nM: IC50 (second compound 0.00316 µM) | IC50 (second compound 0.01 µM)
7100 nM: IC50 (second compound 0.0316 µM)
1020 nM: IC50 (second compound 0.1 µM)
< 31.6 nM: IC50 (second compound 0.316 µM) | IC50 (second compound 1 µM)
inactive: viability, T/C [1] 95.9% | viability, T/C [2] 110% | viability, T/C [3] 89.5% | viability, T/C [4] 87.6% | viability, T/C [5] 71.6% | viability, T/C [6] 76.3% | viability, T/C [7] 92.5% | viability, T/C [8] 95% | viability, T/C [9] 80.9% | viability, T/C [10] 88.2% | viability, T/C [11] 64.8% | viability, T/C [12] 61% | viability, T/C [13] 78.3% | viability, T/C [14] 81.6% | viability, T/C [15] 76.1% | viability, T/C [16] 70% | viability, T/C [17] 61.5% | viability, T/C [18] 45.2% | viability, T/C [19] 60.1% | viability, T/C [20] 64.7% | viability, T/C [21] 57.4% | viability, T/C [22] 48.3% | viability, T/C [23] 41.2% | viability, T/C [24] 30% | viability, T/C [25] 38.3% | viability, T/C [26] 34.6% | viability, T/C [27] 36.1% | viability, T/C [28] 28.2% | viability, T/C [29] 22.6% | viability, T/C [30] 17.3% | viability, T/C [31] 24% | viability, T/C [32] 21.9% | viability, T/C [33] 21.6% | viability, T/C [34] 16% | viability, T/C [35] 12.4% | viability, T/C [36] 9.54%

CC1(C)CCC(Nc2ncc(C(F)(F)F)c(-c3c[nH]c4c(P(C)(C)=O)c(C#N)ccc34)n2)CN1 (stereo not drawn) + CC(Nc1ccc2c(c1)OCCn1cc(N3C(=O)OCC3C(F)F)nc1-2)C(N)=O
active: viability, T/C [6] 5.82% | viability, T/C [12] 5.56% | viability, T/C [18] 4.63% | viability, T/C [36] 0.88%
< 31.6 nM: IC50 (second compound 0.00316 µM) | IC50 (second compound 0.01 µM) | IC50 (second compound 0.0316 µM) | IC50 (second compound 0.1 µM) | IC50 (second compound 0.316 µM) | IC50 (second compound 1 µM)
inactive: viability, T/C [1] 48.3% | viability, T/C [2] 44.8% | viability, T/C [3] 49.2% | viability, T/C [4] 58.6% | viability, T/C [5] 45.3% | viability, T/C [7] 49.9% | viability, T/C [8] 45% | viability, T/C [9] 42.8% | viability, T/C [10] 51.6% | viability, T/C [11] 50.3% | viability, T/C [13] 45.9% | viability, T/C [14] 42.4% | viability, T/C [15] 39.2% | viability, T/C [16] 40.8% | viability, T/C [17] 44.9% | viability, T/C [19] 38.5% | viability, T/C [20] 32.2% | viability, T/C [21] 35.2% | viability, T/C [22] 32.7% | viability, T/C [23] 41.1% | viability, T/C [24] 3.61% | viability, T/C [25] 21.5% | viability, T/C [26] 22.4% | viability, T/C [27] 22.4% | viability, T/C [28] 22.4% | viability, T/C [29] 19.8% | viability, T/C [30] 1.3% | viability, T/C [31] 16.5% | viability, T/C [32] 16.3% | viability, T/C [33] 17.7% | viability, T/C [34] 16.6% | viability, T/C [35] 15.7%

CNC(=O)c1ccc(N2C(=S)N(c3ccc(C#N)c(C(F)(F)F)c3)C(=O)C2(C)C)cc1F + CC(Nc1ncnc2nc[nH]c12)c1cc2cccc(Cl)c2c(=O)n1-c1ccccc1
> 10000 nM: IC50 (second compound 0.0316 µM) | IC50 (second compound 0.1 µM) | IC50 (second compound 0.316 µM) | IC50 (second compound 1 µM) | IC50 (second compound 3.16 µM) | IC50 (second compound 10 µM)
inactive: viability, T/C [13] 97.9% | viability, T/C [14] 108% | viability, T/C [15] 100% | viability, T/C [16] 91.9% | viability, T/C [17] 103% | viability, T/C [18] 85.7% | viability, T/C [19] 94.2% | viability, T/C [20] 104% | viability, T/C [21] 108% | viability, T/C [22] 93% | viability, T/C [23] 83.2% | viability, T/C [24] 74.2% | viability, T/C [25] 111% | viability, T/C [26] 88.6% | viability, T/C [27] 92.4% | viability, T/C [28] 96.3% | viability, T/C [29] 95.2% | viability, T/C [30] 70.9% | viability, T/C [31] 94.3% | viability, T/C [32] 95.4% | viability, T/C [33] 83.8% | viability, T/C [34] 88.9% | viability, T/C [35] 84.7% | viability, T/C [36] 78% | viability, T/C (second compound 3.16 µM, first compound 0.0316 µM) 76.6% | viability, T/C (second compound 3.16 µM, first compound 0.1 µM) 83.1% | viability, T/C (second compound 3.16 µM, first compound 0.316 µM) 71.8% | viability, T/C (second compound 3.16 µM, first compound 1 µM) 82.9% | viability, T/C (second compound 3.16 µM, first compound 3.16 µM) 82.1% | viability, T/C (second compound 3.16 µM, first compound 10 µM) 61.2% | viability, T/C (second compound 10 µM, first compound 0.0316 µM) 62.6% | viability, T/C (second compound 10 µM, first compound 0.1 µM) 67.6% | viability, T/C (second compound 10 µM, first compound 0.316 µM) 66.6% | viability, T/C (second compound 10 µM, first compound 1 µM) 58.7% | viability, T/C (second compound 10 µM, first compound 3.16 µM) 58.5% | viability, T/C (second compound 10 µM, first compound 10 µM) 55%

Cn1cnc2c(F)c(Nc3ccc(Br)cc3Cl)c(C(=O)NOCCO)cc21 + CC(Nc1ncnc2nc[nH]c12)c1cc2cccc(Cl)c2c(=O)n1-c1ccccc1
2090 nM: IC50 (second compound 0.0316 µM)
366 nM: IC50 (second compound 3.16 µM)
732 nM: IC50 (second compound 1 µM)
956 nM: IC50 (second compound 0.1 µM)
< 9.49 nM: IC50 (second compound 10 µM)
1160 nM: IC50 (second compound 0.316 µM)
inactive: viability, T/C (second compound 0.0316 µM, first compound 0.00949 µM) 79.1% | viability, T/C (second compound 0.0316 µM, first compound 0.03 µM) 78.9% | viability, T/C (second compound 0.0316 µM, first compound 0.0949 µM) 69.7% | viability, T/C (second compound 0.0316 µM, first compound 0.3 µM) 67.6% | viability, T/C (second compound 0.0316 µM, first compound 0.949 µM) 57% | viability, T/C (second compound 0.0316 µM, first compound 3 µM) 46.6% | viability, T/C (second compound 0.1 µM, first compound 0.00949 µM) 90.2% | viability, T/C (second compound 0.1 µM, first compound 0.03 µM) 86.3% | viability, T/C (second compound 0.1 µM, first compound 0.0949 µM) 77.7% | viability, T/C (second compound 0.1 µM, first compound 0.3 µM) 57.6% | viability, T/C (second compound 0.1 µM, first compound 0.949 µM) 54.7% | viability, T/C (second compound 0.1 µM, first compound 3 µM) 39.5% | viability, T/C (second compound 0.316 µM, first compound 0.00949 µM) 90.2% | viability, T/C (second compound 0.316 µM, first compound 0.03 µM) 68.8% | viability, T/C (second compound 0.316 µM, first compound 0.0949 µM) 74.2% | viability, T/C (second compound 0.316 µM, first compound 0.3 µM) 68.2% | viability, T/C (second compound 0.316 µM, first compound 0.949 µM) 53.1% | viability, T/C (second compound 0.316 µM, first compound 3 µM) 36% | viability, T/C (second compound 1 µM, first compound 0.00949 µM) 85.5% | viability, T/C (second compound 1 µM, first compound 0.03 µM) 77.3% | viability, T/C (second compound 1 µM, first compound 0.0949 µM) 65% | viability, T/C (second compound 1 µM, first compound 0.3 µM) 58.8% | viability, T/C (second compound 1 µM, first compound 0.949 µM) 48.1% | viability, T/C (second compound 1 µM, first compound 3 µM) 38.6% | viability, T/C (second compound 3.16 µM, first compound 0.00949 µM) 76.4% | viability, T/C (second compound 3.16 µM, first compound 0.03 µM) 60.5% | viability, T/C (second compound 3.16 µM, first compound 0.0949 µM) 60.4% | viability, T/C (second compound 3.16 µM, first compound 0.3 µM) 54% | viability, T/C (second compound 3.16 µM, first compound 0.949 µM) 42.5% | viability, T/C (second compound 3.16 µM, first compound 3 µM) 33.4% | viability, T/C (second compound 10 µM, first compound 0.00949 µM) 47.5% | viability, T/C (second compound 10 µM, first compound 0.03 µM) 44.4% | viability, T/C (second compound 10 µM, first compound 0.0949 µM) 38.8% | viability, T/C (second compound 10 µM, first compound 0.3 µM) 30.5% | viability, T/C (second compound 10 µM, first compound 0.949 µM) 19.5% | viability, T/C (second compound 10 µM, first compound 3 µM) 14.8%
